Assay results published in patent US20220118170A1, “SYSTEMS, APPARATUS, AND METHODS FOR ADMINISTERING A SUBSTANCE” (Massachusetts Institute of Technology, priority 2015, published 2022).

Legend:
[1] = set-up: species or system Yorkshire pigs; details: both, Yorkshire, pig, in vivo
Description: Before every experiment, the animal was fasted overnight.
In step 1402, the subject's rectum is cleared, for example, with a tap water enema. In the study, a clean rectum was confirmed by colonoscopy prior to treatment.
In step 1404, a medicated enema is instilled.
In step 1406, ultrasound is applied. In the study, Control and Treatment tests were performed on separate days. For Treatment tests, the ultrasound treatment was applied using a 20 kHz horn for 2 minutes at a 50% duty cycle at an intensity of 7.5 W/cm^2. For Control tests, the ultrasound probe was inserted into the colon, but not turned on (n=16).
In step 1408, the tissue is biopsied for further assessment. Colonic areas treated with ultrasound were biopsied using endoscopic biopsy forceps (available from, e.g., US Endoscopy, Mentor, Ohio) for drug delivery evaluation as well as histological analysis (n=13).
Each point represents one biological replicate (n=16 for Control, n=13 for Treatment).
Tissue was ground and mixed with phosphate buffered saline and precipitated with 10% trichloroacetic acid. The resulting supernatant was extracted with ethyl acetate. This extract was dried with anhydrous sodium sulfate, transferred to a glass tube, and evaporated to dryness under nitrogen. […] Finally, the sample was allowed to cool to room temperature and analyzed by GC/MS. […]

[2] = Effect of sonication on molecular structure (1H NMR); format: physicochemical; details: 20 kHz ultrasound at highest intensity, 4 mg/mL in deuterated DMSO
Description: Three biological replicates were performed. Unsonicated samples were used as the control. A Varian 500 (1H, 500 MHz) spectrometer was used to record 1H NMR spectra, then processed using Mnova NMR software (available from Mestralab Research, A Coruña, Spain). The 1H NMR spectra were referenced with residual non-deuterated solvent shifts (DMSO-d5=2.5 ppm). All shifts are reported in ppm. Note the disappearance of the volatile internal tetramethylsilane (TMS) standard after ultrasound treatment, which was carried out in an uncapped vial.
Deuterium exchange occurs as labile protons on the analyte exchange with the deuterated solvent in which it is dissolved. Replacement of protons by deuterium results in loss of signal, shown either as a reduction in the integration fractions or disappearance of the peak altogether. Other indications of deuterium exchange include a slight broadening of peak shape, a shift in peak location, and slight change in J coupling values.

[3] = tested on: dextran sodium sulfate (DSS)-induced acute colitis; test: Dextran sodium sulfate-induced murine colitis model, mesalamine enema with radial UMGID; format: in vivo, C57BL/6 mice
Text: Therefore, improvement in disease indices in this model as a result of ultrasound treatment would underscore the impact of UMGID. Given the colonic anatomy and the often circumferential nature of colitis involvement, it was hypothesized that radial UMGID would be most beneficial so as to direct the treatment over the largest area of inflamed tissue. […] The two bumps shown have a diameter of 3 mm and enhance radial ultrasound emission. […] Fifteen-week old, female C57BL/6 mice were purchased from Charles River Laboratories (Wilmington, Mass.) for the induction and treatment of dextran sodium sulfate (DSS)-induced colitis. Five animals were utilized per group. […] Each cage (group) was used as it was received and randomly assigned to experimental groups by the researchers performing the work. On day 1, blood was drawn from all mice and an initial weight of each animal was taken. Colitis was induced with 40-50 kDa dextran sulfate sodium salt (DSS) (available from, e.g., Affymetrix Inc., Santa Clara, Calif.). Starting on day 1, a 3% w/w DSS solution was administered in drinking water ad libitum. On days 3 and 5, the drinking solution was replaced with fresh DSS solution. […] The animals were monitored daily for weight, fecal consistency, and for the presence of fecal occult blood using Hemoccult cards (Beckman Coulter, Pasadena, Calif.). Fecal consistency and the presence of blood was scored based on previously published protocols. Specifically, stool consistency was scored as follows: (1) normal pellet-like feces, (2) pellet of stool easily crushed, (3) soft, watery stool with granules present, or (4) diarrhea. […] Animals with negative hemoccult results were scored (1). […] On day 14, a final weight was taken and fecal score assessed. […] Scores were determined according to previously published protocols with slight modification as follows in TABLE 3: Each tissue cross-section present on the microscope slide (n=2-6) was scored individually between 0-4 with a corresponding percentage involvement (rounded to the nearest quartile). […]

blood-glucose = details: swine, enema containing 100U insulin with 1-minute 20 kHz ultrasound
Description: Both female and male Yorkshire pigs between 45-80 kg in weight were used for one study based on the availability of sex from the vendor. […] Before every experiment, the animal was fasted overnight. Sedation was induced with intramuscular injection of Telazol® tiletamine, 5 mg/kg (available from Zoetis, Inc., Florham, N.J.), xylazine 2 mg/kg, and atropine 0.04 mg/kg. The animal was then intubated and sedation maintained with isoflurane (1-3% inhaled).
In addition to the preparation noted above, a central venous catheter was placed in the femoral vein using the Seldinger technique to allow for frequent blood sampling. […] A real-time readout was achieved using a TRUEtrack® blood glucose meter (available from Nipro Diagnostics Inc., Fort Lauderdale, Fla.). The remaining blood sample was saved in a blood collection tube with sodium fluoride and ethylenediaminetetraacetic acid (EDTA) to minimize further glucose metabolism. All data shown represents the blood-glucose values quantified from the blood collection tubes, which was evaluated in a blinded fashion.
The blood-glucose was monitored for at least 40 minutes, depending on the experiment's effect on blood-glucose. When necessary, hypoglycemia was corrected with intravenous boluses of 50% dextrose (only needed when ultrasound treatment took place). […]

porcine small intestine = test: Permeability in Side-Bi-Side diffusion cells; format: in vitro ADME
Description: Side-Bi-Side™ diffusion cells (available from PermeGear, Hellertown, Pa.) with inner diameters of 9 mm were used to determine permeability. Tissue was placed between the two chambers and clamped together with the luminal side facing the donor chamber. Stir bars were added to both the donor and receiver chambers and agitated using the Bell-ennium™ 9-position magnetic stirrer.
The donor solution consisted of 2 μCi/mL 3H-glucose and 2 μCi/mL 14C-labeled inulin. Each donor chamber was filled with 3 mL of this solution and the receiver solution was filled with 3 mL fresh PBS. At 10-minute intervals over the course of one hour,100 μL samples were taken from the receiver chamber and replaced with an equal volume of fresh PBS. Then, 15 mL of Hionic Fluor was added to these samples and analyzed for tritiated decomposition and 14C decomposition. Seven repeats were performed for the Control samples, and 17 for the Treated samples. […]
The only unknown in Equation 3 is the pore size in λ. Therefore, P may be determined experimentally for each permeant to estimate the membrane pore size. […]
where A is the area of the membrane exposed to the permeant, Ci is the concentration of the permeant in the donor chamber, and dQi/dt is the slope of the plot of the permeant quantity in the receiver chamber versus time after the lag-phase. […]

colon tissue = test: Ex vivo delivery of radiolabeled permeants in Franz diffusion cells, colon; details: colonic tissue, ultrasound treatment, on average
Description: Solutions of the four compounds at a concentration of 1 mg/mL were prepared with a radiolabel content ranging from about 0.001% to about 2.5% depending on the stock solution's radiolabel content.
GI tissue (e.g., tongue, esophagus, stomach, intestine, and colon tissue) from Yorkshire pigs was procured within 20 minutes of animal euthanization and stored at about 4° C. Drug delivery testing took place within 6 hours of euthanization. Upon delivery, the fresh porcine tissue was washed with PBS and excess fat was carefully dissected away. With the exception of tongue tissue, the full thickness of the tissue was used for testing. The tissue was sectioned into approximately 2 cm-by-2 cm pieces and kept hydrated with PBS. The variability in thickness of tongue tissue prevented mounting of the entire thickness in the diffusion chambers. […]
Low-frequency (e.g., less than 100 kHz) ultrasound was utilized and administered directly to tissue and compared to controls consisting of untreated tissue. Delivery efficacy was assessed by quantifying the delivery of radiolabeled permeants into and through tissue utilizing Franz diffusion cells. […] Unless otherwise noted, delivered quantities represent the total amount of permeant delivered over this area. […]

Nc1ccc(O)c(C(=O)O)c1 [mesalamine, 5-aminosalicylic acid]
Drug content in tissue biopsies (limit of detection) [1]: < 50 ng/g tissue | Increase in delivery to tissue biopsies using ultrasound compared to tissue not treated [1]: 22.4 fold | Molecular structure / chemical stability after sonication (1H NMR) [2]: chemical stability | Total fecal score on day 14 ([3]; mesalamine enema alone QD): significantly elevated | Total fecal score on day 14 ([3]; mesalamine enema with ultrasound treatment QD): below 4 | Total fecal score on day 14 ([3]; mesalamine enema with ultrasound treatment QOD): below 4

insulin aspart
Blood-glucose response (blood-glucose): robust hypoglycemic response

inulin
Permeability (porcine small intestine; tissue not treated with ultrasound): 0.227 ± 0.113 ×10⁻⁶ cm/s | Average permeability (porcine small intestine; ultrasound treated samples, 20 kHz for 2 minutes at 50% duty cycle): 0.49 ± 0.227 ×10⁻⁶ cm/s | Amount in the tissue compared to that in the receiver chamber (colon tissue): 90 fold
